Like-named read-outs stand apart in the source and are kept apart here. Marks after values point to notes of the source that are not given here.
Columns and labels:
Calf Thymus DNA (CT-DNA) = assay: DNA binding experiment: UV–vis absorption with CT-DNA; details: complex 50 μM, PBS pH 7.4, increasing CT-DNA
Description: In a quartz cuvette (path length 1 cm), the UV–vis spectra were recorded of a PBS buffer solution (pH 7.4)-containing complex (1, 2, or 3, 50 μM, 0.5% DMF). The UV–vis absorption spectra were successively recorded following each addition of aliquots of Calf Thymus DNA (CT-DNA, 50 μM) after an equilibration time of 1 h.[32],[33]

[1] = Experimental measurement of LogPow by RP-HPLC; format: physicochemical; details: for logPow^exp: RP-HPLC, water/methanol 80/20, 25 °C; for logPow (approximate): theoretical and experimental values in agreement
Description: Reverse phase high performance liquid chromatography (RP-HPLC) analysis was performed to correlate the hydrophobicity of the complexes with their retention time.

[2] = Stability in solution followed by absorption spectra over time; format: physicochemical; details: for fate in aqueous environment (aquation): DMSO/buffer 0.5% v/v pH 7.4, within 24 h, spectra supported by TD-DFT; for solubility in aqueous medium: inferred from reduction of optical density over time
Description: Spectrofluorimetric-grade solvents were used for the photophysical investigations. The buffer solution (pH 7.4) was prepared by dissolving one phosphate buffer saline table in 200 mL of water. Compounds 1–3 were dissolved in DMSO and then diluted to reach a final concentration of 1 × 10^–5 M in DMSO as well as DMSO/buffer 0.5% v/v. A PerkinElmer Lambda 900 spectrophotometer was employed to obtain the UV–visible absorption spectra, using 10 mm path-length quartz cuvettes.
The photophysical properties of 1–3 in DMSO have been previously discussed.[13],[35] In order to investigate the tendency of the Pt(II) complexes to undergo hydrolysis reactions giving the corresponding aqua-complexes, their stability in aqueous solution was monitored spectrophotometrically, acquiring the absorption profiles over time (t = 0, 3, 6, and 24 h). In particular, absorption spectra were registered by dissolving 1–3 in DMSO then diluted in buffer solution (DMSO 0.5% v/v). Moreover, in order to follow a possible aquation reaction with a slower kinetics, absorption spectra were recorded dissolving 1–3 in DMSO containing a low water content, by using a nonanhydrous spectroscopic-grade solvent.

[3] = system: human triple-negative breast cancer cell line MDA-MB-231; parameters: method as in doi:10.1002/aoc.5455; details: cited from earlier work
[4] = parameters: method as in PMID 21450275; details: cited from earlier work
MDA-MB-231 cell line = assay: Intracellular Pt(II) content by ICP-MS; format: cell-based, human; details: 6 h, Figure 6A
Description: First, 200,000 cells/well were seeded in complete medium in a 12-well tray. […] These concentrations correspond to IC50 and IC50/2 of each compound according to our previous work aimed at analyzing the cytotoxic performance of these Pt(II) complexes in the MDA.MB.231 cell line.[13] […] An equal percentage of DMSO was added to control samples. Cells were thus washed two times with cold PBS and lysed with 200 μL of a homemade lysis buffer (Tris 50 mM pH 7, NaCl 150 mM, NP40 1% v/v, protease, and phosphatase inhibitors 1% v/v) for 30 min at 4 °C. The intracellular Pt(II) amount was quantified through ICP-MS (BRUKER aurora M90 ICP-MS, MA, USA), and data were normalized to the total protein content evaluated via bicinchoninic acid assay.
(A and C) Cells were seeded in complete medium (400,000 cells/well); the day after old media were discarded and cells were incubated for 6 h with media-containing compounds at the indicated concentrations, then intracellular protein were extracted, and intracellular ^195Pt was evaluated as ng ^195Pt over protein concentration (A) and further normalized vs the compounds’ working concentrations provided (C). Cisplatin was used as the positive control. An equal amount of DMSO was supplied in each experimental condition. Data are presented as mean ± SD of three different experiments; when invisible, the error bar is included into the bar line. […]

[5] = system: DNA of MDA-MB-231 cell line; assay: DNA-bound Pt(II) by ICP-MS; format: cell-based, human
Description: First, 200,000 cells/well were seeded in the complete medium in a 12-well tray. The day after, the old media were discarded, and the cells were challenged with compound-containing media for 6 h (CisPt: 30 and 60 μM; 1: 25 and 50 μM; 2: 1 and 2 μM; 3: 50 and 100 μM). An equal percentage of DMSO was added to control samples. The cells were thus washed two times with cold phosphate buffered saline (PBS) and digested with 700 μL of a homemade digest buffer (Tris 50 mM pH 8, NaCl 100 mM, EDTA 100 mM, and SDS 1%). The suspensions were moved to vials, and 400 μL of NaCl-saturated solution was added to them. The suspensions were thus vortexed and centrifuged at 12,000 rpm for 5 min. The supernatants were retrieved, added with 500 μL of 2-propanol, vortexed, and centrifuged at 12,000 rpm for 15 min to let DNA precipitate. […] DNA-bound Pt(II) was quantified through inductively coupled plasma-mass spectrometry (ICP-MS), and data were normalized to DNA content quantified with NanoDrop Site.
(A and C) Cells were seeded in complete medium (400,000 cells/well); the day after old media were discarded and cells were incubated for 6 h with media-containing compounds at the indicated concentrations, then intracellular protein were extracted, and intracellular ^195Pt was evaluated as ng ^195Pt over protein concentration (A) and further normalized vs the compounds’ working concentrations provided (C). […]

| Compound | UV–vis spectral change on addition of CT-DNA (Calf Thymus DNA (CT-DNA)) | logPow^exp [1] | fate in aqueous environment (aquation) [2] | solubility in aqueous medium [2] | IC50 [3] [µM] | logPow^exp [4] | cytosolic localization (intracellular Pt) (MDA-MB-231 cell line; compared to cisplatin and the other compounds) | accumulation of platinum in the DNA, corrected for working concentration ([5]; 2 μM 1 compared to cisplatin 60 and 150 μM 2, 6 h, Figure 6D) [fold] | logPow (approximate) [1] | chromatographic logP [1] | intracellular protein-bound Pt compared to the highest cisplatin dose (MDA-MB-231 cell line; highest tested concentration) [fold] | increase in DNA-bound ^195Pt compared to cisplatin 60 μM ([5]; highest tested concentration, 6 h, Figure 6B) [fold] |
| --- | --- | --- | --- | --- | --- | --- | --- | --- | --- | --- | --- | --- |
| N.N.O=C1c2ccccc2C(=O)c2c1ccc1c2[O][Pt][O]1 [Complex 3, [(NH3)2Pt(Aliz)]] | decrease of the band at 545 nm | 0.47 | converted to the corresponding mono-aquo complexes | poor solubility | 127 ± 2.7 |  |  |  |  |  |  |  |
| N.N.O=C([O-])C1(C(=O)[O-])CCC1.[Pt+2] [carboplatin] |  |  |  |  |  | -2.30 ^a |  |  |  |  |  |  |
| CCCC[N+](CCCC)(CCCC)CCCC.O=C1c2ccccc2C(=O)c2c1ccc1c2[O][Pt-]([c]2ccccc2-c2ccccn2)[O]1 (stereo not shown) [Complex 1, NBu4[(PhPy)Pt(Aliz)]] | decrease of the band at 545 nm | 3.33 | complete detachment of the (O^O) ligand |  | 1.9 ± 1.6 |  | barely localizes into cytosol | 10 | around 3 |  |  |  |
| O=C1c2ccccc2C(=O)c2c1ccc(O)c2O [alizarine] |  |  |  |  |  |  |  |  |  | 1.87 |  |  |
| Brc1c(Br)c(Br)c2c(c1Br)[O][Pt-]([c]1ccccc1-c1ccccn1)[O]2.CCCC[N+](CCCC)(CCCC)CCCC [Complex 2, NBu4[(PhPy)Pt(BrCat)]] | decrease of the band at 545 nm | 4.53 | converted to the corresponding mono-aquo complexes | poor solubility | 52.8 ± 3.9 |  |  |  | ~4.5 |  | 3 | 1.6 |
